ChEMBL document CHEMBL5352474, “Synthesis and in vitro antileishmanial activity of alkylene-linked nitrofurantoin-triazole hybrids” (Eur J Med Chem, 2023)

Key:
Leishmania donovani [1] = experiment: Antileishmanial activity against Leishmania donovani 9515 amastigote infected in human THP-1 cells assessed as static activity by measuring inhibition of parasite growth incubated for 72 hrs by resazurin dye based assay; type: functional, organism-based; conditions: Leishmania donovani, 9515, THP-1, 72 h
Leishmania major [2] = experiment: Antileishmanial activity against Leishmania major IR-173 promastigotes assessed as inhibition of parasite growth incubated for 48 hrs by resazurin dye based assay; type: functional, organism-based; conditions: IR-173, 48 h
Leishmania major [3] = experiment: Antileishmanial activity against Leishmania major IR-173 amastigote infected in human THP-1 cells assessed as static activity by measuring inhibition of parasite growth incubated for 72 hrs by resazurin dye based assay; type: functional, organism-based; conditions: IR-173, THP-1, 72 h
[4] = Selectivity index, ratio of IC50 for antileishmanial activity against Leishmania major IR-173 promastigotes to IC50 for antileishmanial activity against Leishmania major IR-173 amastigote infected in human THP-1 cells assessed as static activity; type: functional
Leishmania major [5] = experiment: Leishmanicidal activity against Leishmania major IR-173 amastigote infected in human THP-1 cells incubated for 72 hrs by resazurin dye based analysis; type: functional, organism-based; conditions: IR-173, THP-1, 72 h
[6] = Selectivity index, ratio of IC50 for cytotoxicity against African green monkey Vero cells to IC50 for leishmanicidal activity against Leishmania major […] amastigote infected in human THP-1 cells; type: toxicity, cell-based; conditions: read-out: Ratio IC50
[7] = Selectivity index, ratio of IC50 for antileishmanial activity against Leishmania major IR-173 promastigotes to IC50 for leishmanicidal activity against Leishmania major IR-173 amastigote infected in human THP-1 cells; type: functional
Leishmania donovani [8] = experiment: Antileishmanial activity against Leishmania donovani 9515 promastigotes assessed as inhibition of parasite growth incubated for 48 hrs by resazurin dye based assay; type: functional, organism-based; conditions: Leishmania donovani, 9515, 48 h
Leishmania donovani [9] = experiment: Leishmanicidal activity against Leishmania donovani 9515 amastigote infected in human THP-1 cells incubated for 72 hrs by resazurin dye based analysis; type: functional, organism-based; conditions: Leishmania donovani, 9515, THP-1, 72 h
in vitro [10] = conditions: African green monkey
in vitro [11] = conditions: monkey, Vero cells
Description: Selectivity index, ratio of IC50 for cytotoxicity against African green monkey Vero cells to IC50 for antileishmanial activity against Leishmania major IR-173 promastigote

in vitro [12] = conditions: monkey, Vero cells; remark: listed apart in the source
Description: Selectivity index, ratio of IC50 for cytotoxicity against African green monkey Vero cells to IC50 for antileishmanial activity against Leishmania major IR-173 amastigote infected in human THP-1 cells assessed as static activity

in vitro [13] = conditions: monkey
Description: Selectivity index, ratio of IC50 for cytotoxicity against African green monkey Vero cells to IC50 for leishmanicidal activity against Leishmania donovani 9515 amastigote infected in human THP-1 cells

[14] = Cytotoxicity against HEK293 cells assessed as inhibition of cell growth incubated for 48 hrs by resazurin dye based assay; type: toxicity; conditions: human
[15] = Selectivity index, ratio of IC50 for cytotoxicity against HEK293 cells to IC50 for antileishmanial activity against Leishmania major IR-173 promastigotes; type: toxicity, cell-based; conditions: human, read-out: Ratio IC50
in vitro [16] = conditions: human
[17] = Selectivity index, ratio of IC50 for cytotoxicity against HEK293 cells to IC50 for antileishmanial activity against Leishmania donovani 9515 promastigotes; type: toxicity, cell-based; conditions: human, read-out: Ratio IC50
[18] = Selectivity index, ratio of IC50 for antileishmanial activity against Leishmania donovani 9515 promastigotes to IC50 for antileishmanial activity against Leishmania donovani 9515 amastigote infected in human THP-1 cells assessed as static activity; type: functional
[19] = Selectivity index, ratio of IC50 for antileishmanial activity against Leishmania donovani 9515 promastigotes to IC50 for leishmanicidal activity against Leishmania donovani 9515 amastigote infected in human THP-1 cells; type: functional
in vitro [20] = conditions: monkey, Vero cells; remark: listed apart in the source
Description: Selectivity index, ratio of IC50 for cytotoxicity against African green monkey Vero cells to IC50 for antileishmanial activity against Leishmania donovani 9515 promastigotes

| Structure (SMILES) | IC50 (Leishmania donovani [1]) [µM] | IC50 (Leishmania major [2]) [µM] | IC50 (Leishmania major [3]) [µM] | Ratio IC50 [4] | IC50 (Leishmania major [5]) [µM] | selectivity ratio [6] | Ratio IC50 [7] | IC50 (Leishmania donovani [8]) [µM] | IC50 (Leishmania donovani [9]) [µM] | IC50 at 48 h (in vitro [10]; Vero cells) [µM] | selectivity ratio (in vitro [12]) | IC50 at 48 h [14] [µM] | selectivity ratio [15] | IC50 at 48 h (in vitro [16]; THP-1 cells) [µM] | selectivity ratio [17] | further results |
| --- | --- | --- | --- | --- | --- | --- | --- | --- | --- | --- | --- | --- | --- | --- | --- | --- |
| O=Cc1ccc([N+](=O)[O-])o1 | 8.56 | 7.28 | 8.35 | 0.87 | 5.6 | 4 | 1.3 | > 10 | 2.68 | 23.2 | 3 | – | – | – | – | selectivity ratio (in vitro [11]): 3; selectivity ratio (in vitro [13]; Vero cells): 9 |
| CCCCCc1cn(CCCCCN2C(=O)CN(/N=C/c3ccc([N+](=O)[O-])o3)C2=O)nn1 | > 10 | 1.07 | > 10 | – | 6.56 | 11 | 0.2 | > 10 | > 10 | 72.8 | – | 12 | 11 | 70 | – | – |
| O=C1CN(/N=C/c2ccc([N+](=O)[O-])o2)C(=O)N1CCCCCCn1cc(CSc2ccccc2)nn1 | > 10 | 2.75 | > 10 | – | > 10 | – | – | 0.06 | > 10 | – | – | 19.6 | 7 | – | 327 | – |
| CCCCCCc1cn(CCCCCCN2C(=O)CN(/N=C/c3ccc([N+](=O)[O-])o3)C2=O)nn1 | > 10 | 5.3 | > 10 | – | > 10 | – | – | 0.48 | > 10 | – | – | 83.4 | 16 | – | 174 | – |
| COc1ccc(-c2cn(CCCN3C(=O)CN(/N=C/c4ccc([N+](=O)[O-])o4)C3=O)nn2)cc1 | > 10 | 0.8 | > 10 | – | 9.75 | > 10 | 0.1 | > 10 | > 10 | > 100 | – | 10.8 | 13 | > 100 | – | – |
| CCCCCCc1cn(CCCN2C(=O)CN(/N=C/c3ccc([N+](=O)[O-])o3)C2=O)nn1 | > 10 | 0.48 | 0.84 | 0.7 | > 10 | – | – | > 10 | > 10 | > 100 | 119 | 16.5 | 34 | 38.5 | – | – |
| CCCCCc1cn(CCCN2C(=O)CN(/N=C/c3ccc([N+](=O)[O-])o3)C2=O)nn1 | > 10 | 0.55 | 0.61 | 0.8 | > 10 | – | – | > 10 | > 10 | > 100 | 164 | 35.6 | 74 | 50.6 | – | – |
| COc1ccc(-c2cn(CCCCCCN3C(=O)CN(/N=C/c4ccc([N+](=O)[O-])o4)C3=O)nn2)cc1 | > 10 | 0.59 | > 10 | – | > 10 | – | – | 0.23 | > 10 | – | – | 5.39 | 9 | – | 23 | – |
| O=C1CN(/N=C/c2ccc([N+](=O)[O-])o2)C(=O)N1CCCn1cc(CSc2ccccc2)nn1 | > 10 | 0.67 | > 10 | – | 3.98 | 1 | 0.2 | > 10 | 9.9 | 3.86 | – | 37.4 | 56 | 6.65 | – | – |
| Cc1ccc(-c2cn(CCCCCCN3C(=O)CN(/N=C/c4ccc([N+](=O)[O-])o4)C3=O)nn2)cc1 | > 10 | 0.66 | > 10 | – | > 10 | – | – | 0.98 | > 10 | – | – | 31.1 | 47 | – | 32 | – |
| CCCCc1cn(CCCCCN2C(=O)CN(/N=C/c3ccc([N+](=O)[O-])o3)C2=O)nn1 | > 10 | 0.44 | > 10 | – | 5.69 | 6 | 0.1 | > 10 | 1.68 | 31.6 | – | > 100 | > 227 | > 100 | – | selectivity ratio (in vitro [13]; Vero cells): 19 |
| CCCCCCCCc1cn(CCCCCCN2C(=O)CN(/N=C/c3ccc([N+](=O)[O-])o3)C2=O)nn1 | > 10 | 2.62 | > 10 | – | > 10 | – | – | 0.11 | > 10 | – | – | 50.3 | 19 | – | 457 | – |
| O=C1OCCN1/N=C/c1ccc([N+](=O)[O-])o1 [FURAZOLIDONE] | 4.94 | – | 5.75 | 0.1 | > 10 | – | – | – | 1.68 | – | 17 | – | – | > 100 | – | Ratio IC50 [18]: 0.1; Ratio IC50 [19]: 0.2; IC50 at 48 h (in vitro [10]; vero): > 100 µM; selectivity ratio (in vitro [11]): 270; selectivity ratio (in vitro [20]): 357; selectivity ratio (in vitro [13]; Vero cells): 60 |
| O=C1CN(/N=C/c2ccc([N+](=O)[O-])o2)C(=O)N1 [NITROFURANTOIN] | > 10 | > 10 | > 10 | – | > 10 | – | – | > 10 | 3.57 | – | – | – | – | – | – | IC50 at 48 h (in vitro [10]; vero): > 100 µM; IC50 at 48 h (in vitro [16]; thp-1): > 100 µM; selectivity ratio (in vitro [13]): 28 |
| NC(=O)N/N=C/c1ccc([N+](=O)[O-])o1 [NITROFURAZONE] | 4.11 | – | 2.8 | 0.12 | 5.6 | – | 0.1 | – | 2.7 | > 100 | 36 | – | – | > 100 | – | Ratio IC50 [18]: 0.2; Ratio IC50 [19]: 0.3; selectivity ratio (in vitro [11]): 54; selectivity ratio (in vitro [20]): 54; selectivity ratio (in vitro [13]; Vero cells): 37 |
